Consider four molecules from patent EP1660440B1, “ACYLOXYALKYL CARBAMATE PRODRUGS, METHODS OF SYNTHESIS AND USE” (priority 2003, dated 2005).

The conditions of data set [1]: human, in vivo; cited from earlier work.
The format of data set [2] is in vivo. The following applies: cynomolgus monkeys, intravenous bolus, 1.2 mg/kg. The protocol: R-Baclofen hydrochloride salt was administered to four male cynomolgus monkeys as an aqueous solution by intravenous bolus injection into the saphenous vein at a dose of 1.2 mg/kg. Blood samples were obtained from all animals at intervals over 24 hours post-dosing. Blood was processed immediately for plasma at 4°C. All plasma samples were subsequently analyzed for R-baclofen using the LC/MS/MS assay described above. The mean R-baclofen exposure AUCinf = 3.6 h.µg/mL.

The nature of data set [3]: in vitro. The following applies: human, plasma, % of Baclofen Released.
Method: (§1) The stabilities of prodrugs were evaluated in one or more in vitro systems using a variety of tissue preparations following methods known in the art. The chemical stability of prodrugs in aqueous buffers at pH's of 2.0, 7.4 and 8.0 were also measured. […] Each preparation was incubated with test compound at 37°C for one hour. Aliquots (50 µL) were removed at 0, 30, and 60 min and quenched with 0.1 % trifluoroacetic acid in acetonitrile.
Another data set in a line: physchem. The following applies: aqueous buffer.
The next data set has as its system Caco-2 cells. The following applies: human, Caco-2, 200 uM.
A short description of data set [4]: in vitro. The note with it: human; for metabolised at 1 h, 2 µM: liver s9; for remaining at 1 h, 2 µM: liver s9, % of Prodrug Remaining.
Method: as §1
A further data set is described as follows: Pancreatin stability. The following applies: pig, 5 µM, pH 7.5, 37 °C, after 60 min; for metabolised at 1 h, 5 µM: pancreatin, pH 7.5, 1 % (w/v) pancreatin, read-out: % of Baclofen Released; for remaining at 1 h, 5 µM: 1 % (w/v) pancreatin, read-out: % of Prodrug Remaining. It counts as in vitro ADME, porcine. The protocol: Pancreatin Stability: Stability studies were conducted by incubating prodrug (5 µM) with 1 % (w/v) pancreatin (Sigma, P-1625, from porcine pancreas) in 0.025 M Tris buffer containing 0.5 M NaCl (pH 7.5) at 37 °C for 60 min. The reaction was stopped by addition of 2 volumes of methanol. After centrifugation at 14,000 rpm for 10 min, the supernatant was removed and analyzed by LC/MS/MS.

Data set [5] in a line: in vitro. The note with it: rat, plasma.
Method: as §1
A short description of data set [6]: Caco-2 cellular permeability of prodrugs. The note with it: human. Background: Passage across Caco-2 layers is used to estimate intestinal permeability.
Method: (§2) For example, cellular permeability may be evaluated by examining the flux of a prodrug across a cultured polarized cell monolayer (e.g., Caco-2 cells). Caco-2 cells obtained from continuous culture (passage less than 28) were seeded at high density onto Transwell polycarbonate filters. Cells were maintained with DMEM / 10% fetal calf serum + 0.1 mM nonessential amino acids + 2 mM L-Gln, 5% CO2/ / 95% O2, 37°C until the day of the experiment. Permeability studies were conducted at pH 6.5 apically (in 50 mM MES buffer containing 1 mM CaCl2, 1mM MgCl2, 150 mM NaCl, 3 mM KCl, 1 mM NaH2PO4, 5 mM glucose) and pH 7.4 basolaterally (in Hanks' balanced salt solution containing 10 mM HEPES) in the presence of efflux pump inhibitors (250 µM MK-571, 250 µM Verapamil, 1 mM Ofloxacin). Inserts were placed in 12 or 24 well plates containing buffer and incubated for 30 min at 37C°. Prodrug (200 µM) was added to the apical or basolateral compartment (donor) and concentrations of prodrug and/or released parent drug in the opposite compartment (receiver) were determined at intervals over 1 hour using LC/MS/MS. Values of apparent permeability (Papp) were calculated using the equation: Papp = Vr (dC/dt)//(ACo) [formula]
(§3) Here Vr is the volume of the receiver compartment in mL; dC/dt is the total flux ofprodrug and parent drug (µM/s), determined from the slope of the plot of concentration in the receiver compartment versus time; Co is the initial concentration of prodrug in µM; A is the surface area of the membrane in cm^2.
Data set [7] can be described thus: in vitro. The note with it: rat; for metabolised at 1 h, 2 µM: liver s9; for remaining at 1 h, 2 µM: liver s9, % of Prodrug Remaining.
Method: as §1
The nature of data set [8]: in vitro. The following applies: human, caco-2 homogenate s9.
Method: For stability studies, prodrug (5 µM) was incubated in Caco-2 homogenate S9 fraction (0.5 mg protein per mL) for 60 min at 37°C. Concentrations of intact prodrug and released baclofen were determined at zero time and 60 minutes using LC/MS/MS.

Method for Caco-2 cells: as §2, §3
Method for physchem: as §1

For `NCC(CC(=O)O)c1ccc(Cl)cc1` (racemic) [Baclofen, (±)-4-Amino-3-(4-chlorophenyl)butanoic acid], the elimination half-life in [1] was 3 to 4 h.

Consider `Cl.NC[C@H](CC(=O)O)c1ccc(Cl)cc1` [R-Baclofen hydrochloride salt], for which, in data set [2], the “mean R-baclofen exposure AUCinf” value came to 3600 ng·h/mL.

Regarding `CCCC(=O)OC(OC(=O)NC[C@H](CC(=O)O)c1ccc(Cl)cc1)C(C)C` (some centres unmarked) [(27)], the metabolised at 1 h, 2 µM was determined as 12% in “in vitro [3]”, 79% in “in vitro [4]”, 88% in the data set “in vitro [5]” and 89% in “in vitro [7]”. Also, the degraded at 1 h in “physchem” (pH 2, % of Baclofen Released) was 0%; in the data set “physchem” (pH 7.4, % of Baclofen Released), 0%; in the data set “physchem” (pH 8, % of Baclofen Released), 1%. Besides, the “Ratio A-BB-A” value with Caco-2 cells is 6.9. For the same molecule, the fraction remaining – broadly, the share of the starting amount still present when the sample was taken – at 1 h, 2 µM in “in vitro [4]” is 8%; in the data set “in vitro [7]”, 0%. Besides, the metabolised at 1 h, 5 µM in the data set “Pancreatin stability” was 9%; in “in vitro [8]” it was 67%. In the data set “Pancreatin stability”, the amount remaining at 1 h, 5 µM is 71%. Moreover, the Papp A→B (usually how fast a substance crosses the layer from the apical side) at 200 µM in data set [6] stood at 65 ×10⁻⁶ cm/s. The Papp B→A (commonly how fast a substance crosses the layer from the basolateral side) at 200 µM in data set [6] was 9.4 ×10⁻⁶ cm/s.

For the molecule `CC(C)C(OC(=O)NC[C@H](CC(=O)O)c1ccc(Cl)cc1)OC(=O)C(C)(C)C` (stereo partly drawn) [(43), Sodium 4-[(1-Pivaloyloxyisobutoxy)carbonylamino]-(3R)-(4-chlophenyl)-butanoate], the metabolised at 1 h, 2 µM in “in vitro [3]” was found to be 2%; in the data set “in vitro [4]” it was 39%; in the data set “in vitro [5]” it was 29%; in “in vitro [7]”, 97%. Besides, the degraded at 1 h in the data set “physchem” (pH 2, % of Baclofen Released) stood at 0%; in the data set “physchem” (pH 7.4, % of Baclofen Released), 0%; in the data set “physchem” (pH 8, % of Baclofen Released), 0%. In the data set on Caco-2 cells, the “Ratio A-BB-A” value turned out to be 2.3. Besides, the results for the share remaining at 1 h, 2 µM in the data set “in vitro [4]” and in “in vitro [7]” were 61% and 3%, respectively. In addition, the metabolised at 1 h, 5 µM amounted to 4% in “Pancreatin stability” and 49% in the data set “in vitro [8]”. In addition, the fraction remaining at 1 h, 5 µM in the data set “Pancreatin stability” worked out at 82%. The Papp A→B at 200 µM in data set [6] was found to be 42 ×10⁻⁶ cm/s. In addition, in data set [6], the Papp B→A at 200 µM stood at 18 ×10⁻⁶ cm/s.
